From US20260132123A1, “ABAD INHIBITOR COMPOUNDS” (UNIVERSITY COURT OF THE UNIVERSITY OF ST ANDREWS, priority 2021, published 2026)

Experiments:
[1] = Mouse hepatocyte stability; format: in vitro ADME; set-up: k: unit not given here
Excerpt: Table 5: Initial mouse hepatocyte stability and plasma protein binding experiments were undertaken on some of the best exemplars from the representative series with AG18051 a previously published 17β-HSD10 inhibitor (C. R. Kissinger et al., J. Mol. Biol., 342 (2004), p. 943; Lim, Y.-A., Grimm, A., Giese, M. PLoS ONE (2011), 6, e28887.) Ref: shown for comparison. Where k=absorption rate constant Cl=clearance, T1/2=half-life, Heps=hepatocyte metabolism, PPB=plasma protein binding.

[2] = system: SH-SY5Y (neuroblastoma cells); settings: cited from earlier work

SMILES: O=C(C(c1ccccc1)n1cnc2[nH]ncc2c1=S)N1CCCCCC1 (centres unmarked) [AG18051, reference compound]
- Heps Category ([1]; hepatocyte metabolism category, mouse): High
- Cl ([1]; mouse hepatocytes, clearance): 50.5 ml/minute/g liver
- T1/2 ([1]; mouse hepatocytes, half-life): 6.58 min
- k ([1]; mouse hepatocytes, k=absorption rate constant (so in the source)): 0.11
- protection from Aβ mediated cytotoxicity [2]: protect cultured SH-SY5Y cells from Aβ mediated cytotoxicity
